For one molecule, solubility in methanol results are on record in patent US10675602B2, “Spray-drying process” (Bend Research, Inc., priority 2009, dated 2020).

The series in a line: Room temperature solubility in methanol. The class given is physicochemical. The conditions noted are these: room temperature (20° C. to 30° C.).

For `CCC(=O)O[C@]1(C(=O)SCF)[C@H](C)C[C@H]2[C@@H]3C[C@H](F)C4=CC(=O)C=C[C@]4(C)[C@@]3(F)[C@@H](O)C[C@@]21C` [Active Agent 1, S-(fluoromethyl) 6α,9-difluoro-11β,17-dihydroxy-16α-methyl-3-oxoandrosta-1,4-diene-17β-carbothioate, 17-propionate], the solubility in methanol amounted to 0.3 wt %.
